Activity calls are given as the source filed them.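 How the source made its calls: active means IC50 at or below 10 µM; inactive means IC50 above 10 µM.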
target: tRNA 2'-phosphotransferase Tpt1 (Candida albicans SC5314); assay: Candida albicans TPT1 inhibitors, late-stage follow-up, biochemical, fluorescence polarization, dose response (AID 2838); settings: recombinant caTpt1, RNase T1-coupled fluorescence polarization

IC50, inactive:
NS(=O)(=O)c1cc(C(=O)NC2CCSc3ccccc32)ccc1Cl (centres undefined) > 49.8 µM, NC(=O)c1cc[n+](CC2=C(C(=O)O)N3C(=O)[C@@H](NC(=O)C(c4ccccc4)S(=O)(=O)O)[C@H]3SC2)cc1 (some centres undefined), OC(Cn1cncn1)(Cn1cncn1)c1ccc(F)cc1F > 49.8 µM, CC1=C(C#N)C(=O)N(C2CCS(=O)(=O)C2)C(=O)/C1=C\c1ccco1 (centres undefined) > 49.8 µM

Source: PubChem BioAssay AID2838 (The Scripps Research Institute Molecular Screening Center, 2010)
